Non-standard residues stand in square brackets, D forms with d. Residues, ends and D or L forms follow the SMILES beside them. *: point of attachment. dHis(τ-Bn) = N[C@H](Cc1cn(Cc2ccccc2)cn1)C(=O)O; d2Nal = N[C@H](Cc1ccc2ccccc2c1)C(=O)O; pGlu = O=C1CC[C@@H](C(=O)O)N1; tBu = CC(C)(C)*
How the values were obtained:
[1] = Solubility in PBS (LC/UV AUC trend); conditions: PBS pH 7.4, 0.2 mg/ml; rating 1 (good) to 5 (poor)
[2] = Stability in aqueous media (PBS pH 7.4); format: physicochemical; set-up: unit not given here; conditions: phosphate buffer solution (PBS); PBS pH 7.4, 37° C., samples at T=0, 4, 24, 96 h; read-out: Stability grading (t1/2)
From the text: LC/MS data was collected for compound identity.

GnRHR = target: T1, GnRHR (Homo sapiens, UniProt P30968); test: Calcium assay in CHO-K1 cells (Genscript), FLIPR; format: cell-based; conditions: CHO-K1/GnRHR/Ga15 cells, relative to agonist control, read-out: GNRHR Stimulation at 1 μM
T1 construct: host or cells: CHO-K1 (CHO-K1/GnRHR/Ga15)
T1 sequence (P30968 1-328): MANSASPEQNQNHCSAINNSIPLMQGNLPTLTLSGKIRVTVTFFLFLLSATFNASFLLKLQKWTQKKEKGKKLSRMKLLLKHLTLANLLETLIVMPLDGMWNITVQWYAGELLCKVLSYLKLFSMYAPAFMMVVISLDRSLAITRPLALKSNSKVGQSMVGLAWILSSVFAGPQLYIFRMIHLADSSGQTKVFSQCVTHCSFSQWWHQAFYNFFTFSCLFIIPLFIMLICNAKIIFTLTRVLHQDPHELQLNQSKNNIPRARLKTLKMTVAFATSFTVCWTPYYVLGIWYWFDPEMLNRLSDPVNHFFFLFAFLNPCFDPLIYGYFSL
Method: Test article sample solutions were dissolved in HBSS buffer (with 20 mM HEPES buffer, pH 7.4) to form the 5× working solution. FLIPR® Calcium 4 assay kit from Molecular devices (R8141) was used as required. In brief, CHO-K1 cells expressing GnRHR (CHO-K1/GnRHR/Ga15, Genscript accession NM_000406) were respectively cultured in the 10-cm dishes and maintained at 37° C./5% CO2. CHO-K1 cells expressing GNRHR were respectively seeded in a 384-well black-wall, clear-bottom plate at a density of 15,000 cells per well in 20 μl of growth medium about 18 hours prior to the day of experiment and maintained at 37° C./5% CO2. Then, 20 μl of dye loading solution was added into the wells and the plates were subsequently placed into a 37° C. incubator for 60 minutes, followed by a 15 minutes' incubation at room temperature. At last, 10 μl of compounds or control agonist were added into respective wells of the assay plate during reading in FLIPR. The plate containing 5× compound and control agonist solution was placed in FLIPR. Solutions were added into the cell plate automatically at the 20 seconds and the fluorescence signal was monitored for an additional 100 seconds (21 sec to 120 sec.). Data were recorded by ScreenWorks (version 3.1) as FMD files with FLIPR and stored on the GenScript computer network for off-line analysis. Data acquisition and analyses was performed using ScreenWorks (version 3.1) program and exported to Excel. The average value of the first 20 seconds' reading was calculated as the baseline and the relative fluorescent units (ΔRFU) intensity values were calculated by subtracting the average value of baseline from the maximum fluorescent units (21 s to 120 s).
The % Stimulation was calculated with the following equation: % Stimulation=(ΔRFUCompound−ΔRFUBackground)/(ΔRFUAgonist control−ΔRFUBackground)×100
Dose response curves were fitted with four-parameter-logistic-equation by the software GraphPad Prism 6.
Equation: four parameter logistic equation. Y=Bottom+(Top-Bottom)/(1+10^((Log EC50−X)×Hillslope))
X is the logarithm of concentration. Y is the response.

SMILES: CCNC(=O)[C@@H]1CCCN1C(=O)[C@H](CCCNC(=N)N)NC(=O)[C@H](CC(C)C)NC(=O)[C@@H](COC(C)(C)C)NC(=O)[C@H](Cc1ccc(O)cc1)NC(=O)[C@H](CO)NC(=O)[C@H](Cc1c[nH]c2ccccc12)NC(=O)[C@H](Cc1cnc[nH]1)NC(=O)[C@@H]1CCC(=O)N1 [Buserelin acetate, reference compound]
- Solubility grading [1]: 1

SMILES: CCNC(=O)[C@@H]1CCCN1C(=O)[C@H](CCCNC(=N)N)NC(=O)[C@H](CC(C)C)NC(=O)[C@@H](COC(C)(C)C)NC(=O)[C@H](Cc1c[nH]cn1)NC(=O)[C@H](CO)NC(=O)[C@H](Cc1c[nH]c2ccccc12)NC(=O)[C@H](Cc1c[nH]cn1)NC(=O)[C@@H]1CCC(=O)N1 [Compound 6, pGlu-His-Trp-Ser-His-D-Ser(tBu)-Leu-Arg-Pro-NHEt] ([pGlu]HWSH[dS](tBu)LRP-NHEt)
- half-life at 0.2 mg/ml [2]: > 96
- activation at 1 µM (GnRHR): 88%
- Solubility grading [1]: 1

SMILES: CCNC(=O)[C@@H]1CCCN1C(=O)[C@H](Cc1ccc(O)cc1)NC(=O)[C@H](CC(C)C)NC(=O)[C@@H](COC(C)(C)C)NC(=O)[C@H](Cc1ccc(O)cc1)NC(=O)[C@H](CO)NC(=O)[C@H](Cc1c[nH]c2ccccc12)NC(=O)[C@H](Cc1c[nH]cn1)NC(=O)[C@@H]1CCC(=O)N1 [Compound 9, pGlu-His-Trp-Ser-Tyr-D-Ser(tBu)-Leu-Tyr-Pro-NHEt] ([pGlu]HWSY[dS](tBu)LYP-NHEt)
- half-life at 0.2 mg/ml [2]: > 96
- activation at 1 µM (GnRHR): 78%
- Solubility grading [1]: 1

SMILES: CCNC(=O)[C@@H]1CCCN1C(=O)[C@H](CCCNC(=N)N)NC(=O)[C@H](Cc1c[nH]c2ccccc12)NC(=O)[C@@H](COC(C)(C)C)NC(=O)[C@H](Cc1c[nH]cn1)NC(=O)[C@H](CO)NC(=O)[C@H](Cc1c[nH]c2ccccc12)NC(=O)[C@H](Cc1c[nH]cn1)NC(=O)[C@@H]1CCC(=O)N1 [Compound 10, pGlu-His-Trp-Ser-His-D-Ser(tBu)-Trp-Arg-Pro-NHEt] ([pGlu]HWSH[dS](tBu)WRP-NHEt)
- half-life at 0.2 mg/ml [2]: > 96
- activation at 1 µM (GnRHR): 81%
- Solubility grading [1]: 1

SMILES: CCNC(=O)[C@@H]1CCCN1C(=O)[C@H](Cc1ccc(O)cc1)NC(=O)[C@H](CC(C)C)NC(=O)[C@@H](COC(C)(C)C)NC(=O)[C@H](Cc1c[nH]cn1)NC(=O)[C@H](CO)NC(=O)[C@H](Cc1c[nH]c2ccccc12)NC(=O)[C@H](Cc1c[nH]cn1)NC(=O)[C@@H]1CCC(=O)N1 [Compound 11, pGlu-His-Trp-Ser-His-D-Ser(tBu)-Leu-Tyr-Pro-NHEt] ([pGlu]HWSH[dS](tBu)LYP-NHEt)
- half-life at 0.2 mg/ml [2]: > 96
- activation at 1 µM (GnRHR): 76%
- Solubility grading [1]: 1

SMILES: CC(C)C[C@H](NC(=O)[C@@H](Cc1ccc2ccccc2c1)NC(=O)[C@H](Cc1c[nH]cn1)NC(=O)[C@H](CO)NC(=O)[C@H](Cc1c[nH]c2ccccc12)NC(=O)[C@H](Cc1c[nH]cn1)NC(=O)[C@@H]1CCC(=O)N1)C(=O)N[C@@H](CCCNC(=N)N)C(=O)N1CCC[C@H]1C(=O)NCC(N)=O [Compound 23, pGlu-His-Trp-Ser-His-D-Nal-Leu-Arg-Pro-Gly-amide] ([pGlu]HWSH[d2Nal]LRPG-NH2)
- half-life at 0.2 mg/ml [2]: > 96
- activation at 1 µM (GnRHR): 106%
- Solubility grading [1]: 1

SMILES: N=C(N)NCCC[C@H](NC(=O)[C@H](Cc1c[nH]c2ccccc12)NC(=O)[C@@H](Cc1ccc2ccccc2c1)NC(=O)[C@H](Cc1ccc(O)cc1)NC(=O)[C@H](CO)NC(=O)[C@H](Cc1c[nH]c2ccccc12)NC(=O)[C@H](Cc1c[nH]cn1)NC(=O)[C@@H]1CCC(=O)N1)C(=O)N1CCC[C@H]1C(=O)NCC(N)=O [Compound 24, pGlu-His-Trp-Ser-Tyr-D-Nal-Trp-Arg-Pro-Gly-amide] ([pGlu]HWSY[d2Nal]WRPG-NH2)
- half-life at 0.2 mg/ml [2]: < 96
- activation at 1 µM (GnRHR): 87%
- Solubility grading [1]: 5

SMILES: N=C(N)NCCC[C@H](NC(=O)[C@H](Cc1c[nH]c2ccccc12)NC(=O)[C@@H](Cc1ccc2ccccc2c1)NC(=O)[C@H](Cc1c[nH]cn1)NC(=O)[C@H](CO)NC(=O)[C@H](Cc1c[nH]c2ccccc12)NC(=O)[C@H](Cc1c[nH]cn1)NC(=O)[C@@H]1CCC(=O)N1)C(=O)N1CCC[C@H]1C(=O)NCC(N)=O [Compound 27, pGlu-His-Trp-Ser-His-D-Nal-Trp-Arg-Pro-Gly-amide] ([pGlu]HWSH[d2Nal]WRPG-NH2)
- half-life at 0.2 mg/ml [2]: > 96
- activation at 1 µM (GnRHR): 108%
- Solubility grading [1]: 1

SMILES: NC(=O)CNC(=O)[C@@H]1CCCN1C(=O)[C@H](Cc1ccc(O)cc1)NC(=O)[C@H](Cc1c[nH]c2ccccc12)NC(=O)[C@@H](Cc1ccc2ccccc2c1)NC(=O)[C@H](Cc1ccc(O)cc1)NC(=O)[C@H](CO)NC(=O)[C@H](Cc1c[nH]c2ccccc12)NC(=O)[C@H](Cc1c[nH]cn1)NC(=O)[C@@H]1CCC(=O)N1 [Compound 30, pGlu-His-Trp-Ser-Tyr-D-Nal-Trp-Tyr-Pro-Gly-amide] ([pGlu]HWSY[d2Nal]WYPG-NH2)
- half-life at 0.2 mg/ml [2]: < 96
- activation at 1 µM (GnRHR): 12%
- Solubility grading [1]: 1

SMILES: CCNC(=O)[C@@H]1CCCN1C(=O)[C@H](CCCNC(=N)N)NC(=O)[C@H](CC(C)C)NC(=O)[C@@H](CC(C)C)NC(=O)[C@H](Cc1c[nH]cn1)NC(=O)[C@H](CO)NC(=O)[C@H](Cc1c[nH]c2ccccc12)NC(=O)[C@H](Cc1c[nH]cn1)NC(=O)[C@@H]1CCC(=O)N1 [Compound 42, pGlu-His-Trp-Ser-His-D-Leu-Leu-Arg-Pro-NHEt] ([pGlu]HWSH[dL]LRP-NHEt)
- half-life at 0.2 mg/ml [2]: > 96
- activation at 1 µM (GnRHR): 102%
- Solubility grading [1]: 1

SMILES: CCNC(=O)[C@@H]1CCCN1C(=O)[C@H](Cc1ccc(O)cc1)NC(=O)[C@H](Cc1c[nH]c2ccccc12)NC(=O)[C@@H](CC(C)C)NC(=O)[C@H](Cc1ccc(O)cc1)NC(=O)[C@H](CO)NC(=O)[C@H](Cc1c[nH]c2ccccc12)NC(=O)[C@H](Cc1c[nH]cn1)NC(=O)[C@@H]1CCC(=O)N1 [Compound 49, pGlu-His-Trp-Ser-Tyr-D-Leu-Trp-Tyr-Pro-NHEt] ([pGlu]HWSY[dL]WYP-NHEt)
- half-life at 0.2 mg/ml [2]: > 96
- activation at 1 µM (GnRHR): 77%

SMILES: CCNC(=O)[C@@H]1CCCN1C(=O)[C@H](Cc1ccc(O)cc1)NC(=O)[C@H](CC(C)C)NC(=O)[C@@H](Cc1cn(Cc2ccccc2)cn1)NC(=O)[C@H](Cc1ccc(O)cc1)NC(=O)[C@H](CO)NC(=O)[C@H](Cc1c[nH]c2ccccc12)NC(=O)[C@H](Cc1c[nH]cn1)NC(=O)[C@@H]1CCC(=O)N1 [Compound 59, pGlu-His-Trp-Ser-Tyr-D-Bhi-Leu-Tyr-Pro-NHEt] ([pGlu]HWSY[dHis(τ-Bn)]LYP-NHEt)
- half-life at 0.2 mg/ml [2]: < 96
- activation at 1 µM (GnRHR): 85%

SMILES: CCNC(=O)[C@@H]1CCCN1C(=O)[C@H](CCCNC(=N)N)NC(=O)[C@H](Cc1c[nH]c2ccccc12)NC(=O)[C@@H](Cc1cn(Cc2ccccc2)cn1)NC(=O)[C@H](Cc1c[nH]cn1)NC(=O)[C@H](CO)NC(=O)[C@H](Cc1c[nH]c2ccccc12)NC(=O)[C@H](Cc1c[nH]cn1)NC(=O)[C@@H]1CCC(=O)N1 [Compound 60, pGlu-His-Trp-Ser-His-D-Bhi-Trp-Arg-Pro-NHEt] ([pGlu]HWSH[dHis(τ-Bn)]WRP-NHEt)
- half-life at 0.2 mg/ml [2]: > 96
- activation at 1 µM (GnRHR): 102%

SMILES: CCNC(=O)[C@@H]1CCCN1C(=O)[C@H](Cc1ccc(O)cc1)NC(=O)[C@H](CC(C)C)NC(=O)[C@@H](Cc1cn(Cc2ccccc2)cn1)NC(=O)[C@H](Cc1c[nH]cn1)NC(=O)[C@H](CO)NC(=O)[C@H](Cc1c[nH]c2ccccc12)NC(=O)[C@H](Cc1c[nH]cn1)NC(=O)[C@@H]1CCC(=O)N1 [Compound 61, pGlu-His-Trp-Ser-His-D-Bhi-Leu-Tyr-Pro-NHEt] ([pGlu]HWSH[dHis(τ-Bn)]LYP-NHEt)
- half-life at 0.2 mg/ml [2]: > 96
- activation at 1 µM (GnRHR): 112%

SMILES: NC(=O)CNC(=O)[C@@H]1CCCN1C(=O)[C@H](Cc1ccc(O)cc1)NC(=O)[C@H](Cc1c[nH]c2ccccc12)NC(=O)[C@@H](Cc1c[nH]c2ccccc12)NC(=O)[C@H](Cc1c[nH]cn1)NC(=O)[C@H](CO)NC(=O)[C@H](Cc1c[nH]c2ccccc12)NC(=O)[C@H](Cc1c[nH]cn1)NC(=O)[C@@H]1CCC(=O)N1 [Compound 65, pGlu-His-Trp-Ser-His-D-Trp-Trp-Tyr-Pro-Gly-amide] ([pGlu]HWSH[dW]WYPG-NH2)
- half-life at 0.2 mg/ml [2]: > 96
- activation at 1 µM (GnRHR): 72%
